Assays:
[1] = tested on: SETDB1 3TD W358A; experiment: Modified histone peptide array binding of 3TD W358A; conditions: W358A vs wildtype
Procedure: (§1) Experiments to determine the binding specificity of 3TD wildtype and mutants were performed using CelluSpots peptide arrays (MODified Histone Peptide Array, Active Motif), as described previously, in 20 mM HEPES pH 7.5, 100 mM KCl, 1 mM EDTA, 0.2 mM DTT, and 10% glycerol. All peptide array binding studies were conducted at least in two technical repeats. Annotations of all spots are given in Supplementary Table 2. The amounts of GST-fused Tudor proteins used in peptide array binding and western blot analyses ranged from 0.5 to 100 nM. For methylation analysis, MODified Histone Peptide arrays (Active Motif) were incubated with 20 nM SETDB1 in buffer (50 mM Tris/HCl pH 9.0, 4 mM DTT, 5 mM MgCl2) supplemented with 0.38 µM radioactively labeled [methyl-3H]-AdoMet (Perkin Elmer) for 2 h at room temperature. The arrays were then washed 5 times with wash buffer (100 mM NH4HCO3 and 1% SDS), incubated in Amplify NAMP100 (GE Healthcare) for 5 min, and then exposed to Hyperfilm TM ECL high-performance chemiluminescence film (GE Healthcare) in the dark at −80 °C for 1–7 days.

[2] = tested on: SETDB1 3TD Y268A; experiment: Modified histone peptide array binding of 3TD Y268A; conditions: Y268A vs wildtype; peptide array and ITC assays
Procedure: as §1

[3] = biological target: T1, SETDB1 3TD W358A (TD3) (Homo sapiens, UniProt Q15047, W358A); experiment: ITC binding of 3TD W358A to H3 peptides; conditions: W358A vs wildtype
T1 construct: cloned into the pET28a-MHL (residues 190–410), pGEX6P2, and pGEX-4T-1 (residues 197–403) vectors; 6×His; made in house; host or cells: E. coli BL21 derivative (SGC) with pRARE
Procedure: (§2) ITC experiments were carried out at 25 °C on a VP-ITC calorimeter (MicroCal). Protein and peptide were kept in an identical buffer of 20 mM Tris/HCl pH 7.0 and 150 mM NaCl. ITC measurements were carried out with protein and ligand concentrations ranging from 50 to 100 μM and 1–2 mM, respectively. Binding isotherms were analyzed by nonlinear least-squares fitting of the data using Microcal ORIGIN software (Microcal) using a one-site binding model.

[4] = tested on: SETDB1 3TD, GST-tagged, wildtype; experiment: Modified histone peptide array binding of 3TD wildtype; conditions: GST-tagged 3TD, modified histone peptide arrays
Procedure: as §1

[5] = tested on: SETDB1 3TD F332A; experiment: Modified histone peptide array binding of 3TD F332A; conditions: replacement of F332 by alanine; peptide array and ITC
Procedure: as §1

[6] = biological target: T2, SETDB1 3TD Y268A (TD2) (Homo sapiens, UniProt Q15047, Y268A); experiment: ITC binding of 3TD Y268A to H3 peptides; conditions: Fig. 2c, Y268A relative to wildtype
T2 construct: cloned into the pET28a-MHL (residues 190–410), pGEX6P2, and pGEX-4T-1 (residues 197–403) vectors; 6×His; made in house; host or cells: E. coli BL21 derivative (SGC) with pRARE
Procedure: as §2

[7] = biological target: T3, SETDB1 3TD, wildtype (Homo sapiens, UniProt Q15047); experiment: NMR chemical shift perturbation binding to 3TD; conditions: 15N HSQC, 25 °C, pH 7.0, 150 mM NaCl
T3 construct: cloned into the pET28a-MHL (residues 190–410), pGEX6P2, and pGEX-4T-1 (residues 197–403) vectors; 6×His; made in house; host or cells: E. coli BL21 derivative (SGC) with pRARE
Procedure: NMR experiments were collected on a Bruker Avance 500-MHz spectrometer equipped with a cryogenic probe. Chemical shift perturbation experiments were carried out using uniformly ^15N-labeled wildtype 3TD protein in 20 mM Tris/HCl pH 7.0 and 150 mM NaCl. ^1H, ^15N HSQC spectra were recorded at 25 °C in the presence of increasing concentrations of histone tail peptides. K d values were calculated by a nonlinear least-squares analysis in Kaleidagraph using the equation Δδ=ΔδmaxcL+cP+Kd-cL+cP+Kd^2-4cLcP∕2cP, where c L is the concentration of the peptide, c P is the concentration of the protein, Δδ is the observed normalized chemical shift change, and Δδ max is the normalized chemical shift change at saturation, calculated as Δδ=ΔδH^2+ΔδN∕5^2, where δ is the chemical shift in p.p.m.
Supplementary Figure 1: Peptide binding of 3TD. (a) Titration of 3TD binding to peptide arrays. Note the specific binding to H3K9me1/2/3-K14ac double modified […]
concentration (100 nM). (b) ITC analysis of 3TD binding to single modified H3 tail […]
peptides. (c) NMR chemical shift perturbation experiments carried out to detect potentially weak binding of 3TD to H3K14ac, H3K9me3 and unmodified H3. Weak binding of H3K14ac could be detected and the […]
H3 was observed. Panel a relates to Fig. 1, panels b and c to Fig. 2.
(1 picture or pasted object on this page, not shown here)

[8] = tested on: HEK293 cells; experiment: Western blot of histone modifications after HDAC inhibitor treatment; format: cell-based, human; conditions: HEK293, 48 h, 0.4 mM TSA or 5 mM sodium butyrate; for K9 methylation content of H3 from treated cells: western blot anti-K9me; for H3K14ac signal of H3 from treated cells: western blot anti-K14ac
Procedure: (§3) Native histones were isolated by acid extraction[55] from HEK293 cells, and recombinant histone H3 was purchased from New England Biolabs. For the experiment with HDAC inhibitors, cells were treated for 48 h with 0.4 mM TSA or 5 mM sodium butyrate. Five micrograms of native histones and matching amount of recombinant H3 were electrophoresed on 18% SDS-PAGE and transferred onto nitrocellulose membranes. The membrane was then blocked in 5% milk in TBST and incubated with purified GST-tagged 3TD, followed by the anti-GST (GE Healtcare 27457701A, dilution 1:5000) and anti-goat antibody (Sigma A4174, dilution 1:10000). The amount of GST-fused Tudor protein used in western blot analyses was 100 nM. All experiments were performed in duplicates or triplicates. In the western blots, following antibodies were used: anti-K14ac (Millipore MABE351, dilution for checking specificity: 1:2000 or 1:1000; for western blot: 1:500), anti-H3K9me3 (Abcam ab8898, dilution 1:2000), anti-H3K9me2 (Abcam ab1220, dilution 1:1000), and anti-H3K4me3 (Abcam ab8580, dilution 1:2000). For specificity analysis of antibodies, see Supplementary Fig. 13. Secondary antibodies were anti-rabbit IgG HRP (GE Healtcare NA934, dilution 1:5000) and anti-mouse IgG HRP (GE Healtcare NXA931, dilution 1:5000). Native histone and nucleosome pull-down experiments were done at least in two biological repeats. All antibodies were used following the manufacturer’s recommendations. Uncropped gel images are shown in Supplementary Fig. 14.

[9] = tested on: HEK293 cells; experiment: Far-western blot of 3TD binding to histones from HDAC inhibitor treated cells; format: cell-based, human; conditions: HEK293, 48 h, 0.4 mM TSA or 5 mM sodium butyrate, 100 nM GST-3TD
Procedure: as §3, with “All antibodies were used following the manufacturer’s recommendations. Uncropped gel images are shown in Supplementary Fig. 14.” left out

SMILES | change of peptide array binding, W358A [1] | change of binding, Y268A [2] | peptide array binding, 3TD [4] | fold reduction of affinity, W358A [3] | K9 methylation content of H3 from treated cells [8] | H3K14ac signal of H3 from treated cells [8] | 3TD binding to histones from treated cells [9] | further results
CC(=O)NCCCC[C@H](NC(=O)CNC(=O)CNC(=O)[C@@H](NC(=O)[C@H](CO)NC(=O)[C@H](CCCC[N+](C)(C)C)NC(=O)[C@H](CCCNC(=N)N)NC(=O)[C@H](C)NC(=O)[C@@H](NC(=O)[C@H](CCC(N)=O)NC(=O)[C@@H](N)CCCCN)[C@@H](C)O)[C@@H](C)O)C(=O)N[C@@H](C)C(=O)N1CCC[C@H]1C(=O)N[C@@H](CCCNC(=N)N)C(=O)N[C@@H](CCCCN)C(=O)N[C@@H](CCC(N)=O)C(=O)O [H3K9me3/K14ac] | only moderately reduced | clear reduction in affinity | strong and selective binding | 2 fold |  |  |  | relative binding affinity, Y268A [6]: specific loss in binding
C[C@H](NC(=O)[C@@H](NC(=O)[C@H](CCC(N)=O)NC(=O)[C@@H](N)CCCCN)[C@@H](C)O)C(=O)N[C@@H](CCCNC(=N)N)C(=O)N[C@@H](CCCC[N+](C)(C)C)C(=O)N[C@@H](CO)C(=O)N[C@H](C(=O)NCC(=O)NCC(=O)N[C@@H](CCCCN)C(=O)N[C@@H](C)C(=O)N1CCC[C@H]1C(=O)N[C@@H](CCCNC(=N)N)C(=O)N[C@@H](CCCCN)C(=O)N[C@@H](CCC(N)=O)C(=O)O)[C@@H](C)O [H3K9me3] |  |  |  |  |  |  |  | binding detected by NMR [7]: no detectable binding
CCCC(=O)[O-].[Na+] [sodium butyrate] |  |  |  |  | did not change | increased H3K14ac signal | increased 3TD binding | 
CC(/C=C/C(=O)NO)=C\[C@@H](C)C(=O)c1ccc(N(C)C)cc1 [trichostatin A] |  |  |  |  | did not change | increased H3K14ac signal | increased 3TD binding | 

Now from value to compound, other results behind:

change of peptide array binding, W358A [1] | change of binding, Y268A [2] | peptide array binding, 3TD [4] | SMILES | fold reduction of affinity, W358A [3] | K9 methylation content of H3 from treated cells [8] | H3K14ac signal of H3 from treated cells [8] | 3TD binding to histones from treated cells [9] | further results
loss | not affected | strong and selective binding | CNCCCC[C@H](NC(=O)[C@H](CCCNC(=N)N)NC(=O)[C@H](C)NC(=O)[C@@H](NC(=O)[C@H](CCC(N)=O)NC(=O)[C@@H](N)CCCCN)[C@@H](C)O)C(=O)N[C@@H](CO)C(=O)N[C@H](C(=O)NCC(=O)NCC(=O)N[C@@H](CCCCNC(C)=O)C(=O)N[C@@H](C)C(=O)N1CCC[C@H]1C(=O)N[C@@H](CCCNC(=N)N)C(=O)N[C@@H](CCCCN)C(=O)N[C@@H](CCC(N)=O)C(=O)O)[C@@H](C)O [H3K9me1/K14ac] |  |  |  |  | loss of binding in ITC, W358A [3]: completely lost
strong reduction in binding | not affected | strong and selective binding | CC(=O)NCCCC[C@H](NC(=O)CNC(=O)CNC(=O)[C@@H](NC(=O)[C@H](CO)NC(=O)[C@H](CCCCN(C)C)NC(=O)[C@H](CCCNC(=N)N)NC(=O)[C@H](C)NC(=O)[C@@H](NC(=O)[C@H](CCC(N)=O)NC(=O)[C@@H](N)CCCCN)[C@@H](C)O)[C@@H](C)O)C(=O)N[C@@H](C)C(=O)N1CCC[C@H]1C(=O)N[C@@H](CCCNC(=N)N)C(=O)N[C@@H](CCCCN)C(=O)N[C@@H](CCC(N)=O)C(=O)O [H3K9me2/K14ac] | 18 fold |  |  |  | change of binding, F332A [5]: strong reduction in affinity

Source: paper PMC5727127, “H3K14ac is linked to methylation of H3K9 by the triple Tudor domain of SETDB1” (Nature Communications, 2017)
